± gives the standard deviation of the averaged measurements.
What was measured:
YST-1 [1] = experiment: drug sensitivity score (DSS, CellTiter-Glo viability, 72 h) (DSS (dimensionless)); higher = more sensitive; extreme values may be limits of the assay
How it was run: (§1)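 MPNST cell lines and primary human Schwann cells were seeded at 750–1000 cells per well into 384-well plates preprinted with each compound at five concentrations in 10-fold steps, then incubated 72 h at 37 °C, 5% CO2. CellTiter-Glo ATP luminescence gave viability, scaled between vehicle and positive-control wells, with duplicates averaged where present. Curves were fitted with a four-parameter logistic model. Percent inhibition refers to the top concentration, while drug sensitivity score and relative IC50, censored at the top concentration, come from these fits.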

HS-PSS [2] = experiment: as above
How it was run: as §1

ST8814 [3] = experiment: as above
How it was run: as §1

HS-Sch-2 [4] = experiment: as above
How it was run: as §1

[5] = system: HSC1 (primary human Schwann cells); experiment: as above
How it was run: as §1

S1507-2 [6] = experiment: as above
How it was run: as §1

S462 [7] = experiment: as above
How it was run: as §1

[8] = system: HSC2 (primary human Schwann cells); experiment: as above
How it was run: as §1

STS26T [9] = experiment: as above
How it was run: as §1

HS-PSS [10] = experiment: drug sensitivity score (DSS, CellTox-Green cytotoxicity, 72 h) (DSS (dimensionless)); higher = more cytotoxic; extreme values may be limits of the assay
How it was run: (§2)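 For 72 h at 37 °C, MPNST cell lines and primary human Schwann cells were exposed in 384-well plates to five 10-fold compound dilutions. CellTox-Green, added before seeding at a final 1:1000 dilution, gave fluorescence from DNA released by disrupted cells. Signals were scaled to vehicle and positive-control wells, cultures failing plate quality control were left out, and four-parameter logistic fits were applied. Relative IC50 and drug sensitivity score were derived from the fits, with IC50 censored at the top concentration.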

ST8814 [11] = experiment: as above
How it was run: as §2

[12] = system: HSC1 (primary human Schwann cells); experiment: as above
How it was run: as §2

S1507-2 [13] = experiment: as above
How it was run: as §2

[14] = system: HSC2 (primary human Schwann cells); experiment: as above
How it was run: as §2

STS26T [15] = experiment: as above
How it was run: as §2

YST-1 [16] = experiment: % inhibition of CellTiter-Glo viability at highest tested concentration (72 h), relative to DMSO and benzethonium chloride controls; higher = more inhibition
How it was run: as §1

HS-PSS [17] = experiment: as above
How it was run: as §1

ST8814 [18] = experiment: as above
How it was run: as §1

HS-Sch-2 [19] = experiment: as above
How it was run: as §1

[20] = system: HSC1 (primary human Schwann cells); experiment: as above
How it was run: as §1

S1507-2 [21] = experiment: as above
How it was run: as §1

S462 [22] = experiment: as above
How it was run: as §1

[23] = system: HSC2 (primary human Schwann cells); experiment: as above
How it was run: as §1

STS26T [24] = experiment: as above
How it was run: as §1

| Structure (SMILES) | drug sensitivity score (YST-1 [1]) | drug sensitivity score (HS-PSS [2]) | drug sensitivity score (ST8814 [3]) | drug sensitivity score (HS-Sch-2 [4]) | drug sensitivity score [5] | drug sensitivity score (S1507-2 [6]) | drug sensitivity score (S462 [7]) | drug sensitivity score [8] | drug sensitivity score (STS26T [9]) | drug sensitivity score (HS-PSS [10]) | drug sensitivity score (ST8814 [11]) | drug sensitivity score [12] | drug sensitivity score (S1507-2 [13]) | drug sensitivity score [14] | drug sensitivity score (STS26T [15]) | % inhibition (YST-1 [16]) [%] | % inhibition (HS-PSS [17]) [%] | % inhibition (ST8814 [18]) [%] | % inhibition (HS-Sch-2 [19]) [%] | % inhibition [20] [%] | % inhibition (S1507-2 [21]) [%] | % inhibition (S462 [22]) [%] | % inhibition [23] [%] | % inhibition (STS26T [24]) [%] |
| --- | --- | --- | --- | --- | --- | --- | --- | --- | --- | --- | --- | --- | --- | --- | --- | --- | --- | --- | --- | --- | --- | --- | --- | --- |
| CC[C@@]1(O)C(=O)OCc2c1cc1n(c2=O)Cc2cc3c(CN(C)C)c(O)ccc3nc2-1 [Topotecan] (max concentration tested 10000 nM) | 26.3 | 14.6 | 27.2 | 21.7 | 19.6 | 18.9 ± 2.7 | 27.08 ± 0.12 | 22 | 18.3 | 11.1 | 32.1 | 27.9 | 16.1 ± 2.5 | 18.4 | 15.6 | 99.7 | 87.1 | 93.6 | 101 | 91.1 | 92.99 ± 0.57 | 96 ± 1.4 | 93.5 | 92.2 |
| CN(C)CCOc1ccc(/C(=C(/CCCl)c2ccccc2)c2ccccc2)cc1 [Toremifene] (max concentration tested 10000 nM) | 0.84 | 2.31 | 1.19 | 1.63 | 1.48 | 1.26 ± 0.65 | 0.537 ± 0.16 | 3.28 | 0.998 | 0 | 5.11 | 0 | 1.36 ± 0.28 | 0 | 0.141 | 26.3 | 48.1 | 34.5 | 37.2 | 21.8 | 32.2 ± 11 | 22.3 ± 3 | 55.6 | 27.1 |
| CC(C)C[C@@H](C(=O)N[C@H](C(=O)OC1CCCC1)c1ccccc1)[C@H](O)C(=O)NO [Tosedostat] (max concentration tested 10000 nM) | 4.41 | 0.92 | 2.24 | 11 | 9.82 | 3.83 ± 0.36 | 8.03 ± 0.91 | 12.3 | 18.2 | 0 | 2.29 | 0 | 10.4 ± 9.7 | 0 | 28.6 | 28.4 | 25 | 28 | 64.9 | 50.1 | 26.2 ± 6.2 | 55 ± 3.6 | 54.6 | 74.9 |
| CC(=O)Nc1cccc(-n2c(=O)n(C3CC3)c(=O)c3c(Nc4ccc(I)cc4F)n(C)c(=O)c(C)c32)c1 [Trametinib] (max concentration tested 250 nM) | 0 | 5.07 | 12.8 | 4.27 | 9.86 | 10.4 ± 0.064 | 13.48 ± 0.13 | 8.12 | 7.88 | 0.89 | 6.34 | 0 | 4.3 ± 0.49 | 0.138 | 0 | 4.55 | 46.4 | 96.7 | 53.5 | 64.5 | 76.9 ± 1.3 | 85.67 ± 0.21 | 66.4 | 48.4 |
| CC1=C(/C=C/C(C)=C/C=C/C(C)=C/C(=O)O)C(C)(C)CCC1 [Tretinoin] (max concentration tested 10000 nM) | 0 | 0 | 1.48 | 0 | 3.65 | 2.06 ± 2.6 | 0 | 1.99 | 0.0098 | 0 | 0 | 0 | 0.483 ± 0.68 | 0 | 0 | -8.64 | -12.1 | 19.1 | -3.32 | 32.9 | 22.8 ± 16 | 4.5 ± 5.9 | 20.1 | 12.3 |
| O=C(CCCCCCC(=O)Nc1ccc([C@H]2O[C@@H](CSc3nc(-c4ccccc4)c(-c4ccccc4)o3)C[C@@H](c3ccc(CO)cc3)O2)cc1)NO [Tubacin] (max concentration tested 10000 nM) | 4.41 | 4.53 | 3.74 | 3.9 | 3.73 | 3.73 ± 1 | 3.54 ± 1.2 | 3.24 | 3.13 | 0.31 | 2.33 | 0 | 0.0428 ± 0.06 | 0 | 3.25 | 56.1 | 48 | 64.2 | 63.7 | 70 | 67.9 ± 7.1 | 64.9 ± 20 | 56.6 | 60.2 |
| CN1CCc2c(c3ccccc3n2Cc2ccc(C(=O)NO)cc2)C1 [Tubastatin A] (max concentration tested 10000 nM) | 4.65 | 3.48 | 1.84 | 3.88 | 1.74 | 3.45 ± 0.18 | 4.36 ± 0.37 | 1.75 | 3.1 | 0 | 0 | 0 | 0.928 ± 1.3 | 0 | 2.56 | 52.4 | 60.9 | 40.8 | 74.3 | 36.4 | 52.1 ± 7.6 | 80.8 ± 8.9 | 23.3 | 52.5 |
| CN[C@@H]1C[C@H]2O[C@@](C)([C@@H]1OC)n1c3ccccc3c3c4c(c5c6ccccc6n2c5c31)C(=O)N[C@H]4O [UCN-01] (max concentration tested 10000 nM) | 21.8 | 22.1 | 27.3 | 26.7 | 27.8 | 32.23 ± 0.17 | 31.03 ± 0.038 | 30.9 | 27.9 | 6.62 | 13.8 | 15.9 | 15.35 ± 0.12 | 21.7 | 29.4 | 89.8 | 100 | 105 | 102 | 102 | 105 ± 1.4 | 105.6 ± 0.5 | 103 | 104 |
| COc1cc2c(NC3CCN(C(C)C)CC3)nc(C3CCCCC3)nc2cc1OCCCN1CCCC1 [UNC0638] (max concentration tested 10000 nM) | 6.1 | 8.75 | 6.45 | 7.32 | 0.362 | 8.72 ± 0.32 | 6.31 ± 2.1 | 0.116 | 5.05 | 6.72 | 7.41 | 0 | 23.4 ± 25 | 0 | 5.16 | 100 | 101 | 98.6 | 101 | 21.5 | 99.6 ± 1 | 98.9 ± 1.6 | 14.9 | 99.1 |
| COc1cc2c(NC3CCN(C(C)C)CC3)nc(N3CCC(F)(F)CC3)nc2cc1OCCCN1CCCC1 [UNC0642] (max concentration tested 10000 nM) | 5.26 | 6.56 | 5.87 | 6.08 | 0 | 8.23 ± 0.62 | 5.99 ± 0.77 | 0 | 5.57 | 4.78 | 5.37 | 0 | 7.07 ± 1.3 | 0 | 6.03 | 94.9 | 99.3 | 99.1 | 100 | 7.89 | 101.9 ± 0.52 | 93 ± 3 | 7.25 | 96.5 |
| O=C(c1ccc(C(=O)N2CCC(N3CCCC3)CC2)c(Nc2ccccc2)c1)N1CCC(N2CCCC2)CC1 [UNC1215] (max concentration tested 30000 nM) | 0 | 0.73 | 0.198 | 0.38 | 0 | 0 | 0 | 0 | 0 | 0 | 0 | 0 | 0 | 0 | 0 | -5.53 | 20.4 | 13.9 | 15.2 | 8.9 | 5.34 ± 1.7 | 2.34 ± 0.36 | 5.83 | 3.37 |
| Cc1cnc(Nc2ccc(F)cc2Cl)nc1-c1c[nH]c(C(=O)N[C@H](CO)c2cccc(Cl)c2)c1 [VX-11E] (max concentration tested 2500 nM) | 0 | 2.39 | 3.25 | 6.97 | 3.7 | 1.62 ± 0.29 | 0.861 ± 0.47 | 4.46 | 1.5 | 0 | 5.09 | 2 | 2.31 ± 3.2 | 4.5 | 2.55 | 6.16 | 44.5 | 67.8 | 71.8 | 64.2 | 40.7 ± 3 | 29.1 ± 8.6 | 71.8 | 34 |
| CCCCC(=O)OCC(=O)[C@]1(O)Cc2c(O)c3c(c(O)c2[C@@H](O[C@H]2C[C@H](NC(=O)C(F)(F)F)[C@H](O)[C@H](C)O2)C1)C(=O)c1c(OC)cccc1C3=O [Valrubicin] (max concentration tested 5000 nM) | 19.3 | 11.7 | 13.6 | 14.3 | 14 | 10.19 ± 0.1 | 14.22 ± 0.059 | 14.1 | 13.5 | 0 | 0 | 0 | 0.125 ± 0.18 | 0 | 0 | 100 | 97.5 | 97.2 | 101 | 95.1 | 92.5 ± 2.8 | 94.14 ± 0.67 | 98.5 | 97.7 |
